Measured values from patent US7776899B2, “Methods for treatment of erectile dysfunction” (Repros Therapeutics Inc., priority 1998, dated 2010).
Counter-ions that a name gives are not always drawn.

Key:
[1] = pH 7.48
Experimental: (§1) A 0.1 N solution of NaOH was used to adjust the pH to the indicated values. These solutions were shaken for about 10 minutes then held at room temperature overnight in order to allow maximum dissolution of drugs in the buffer. […] HPLC was performed using a C18 column having a mobile phase of buffer (5 mM NaH2PO4 and 5 mM octane sulfonic acid, pH 3) in 30% acetonitrile with a flow rate of 1.5 ml/minute. The detection wavelength was 210 nm.

physchem = conditions: thermodynamic from solid
Experimental: as §1

- In Solution (solubility in mixture) [1]: 170 µg/mL
- solubility (physchem; pH 3.91, aqueous buffer, In Solution (solubility in mixture)): 36800 µg/mL
- solubility (physchem; pH 3.91, aqueous buffer, solubility): ~36800 µg/mL
- solubility (physchem; pH 4.35, aqueous buffer, In Solution (solubility in mixture)): 7750 µg/mL
- solubility (physchem; pH 5.04, aqueous buffer, In Solution (solubility in mixture)): 700 µg/mL
- solubility (physchem; pH 7.48, aqueous buffer, In Solution (solubility in mixture)): ~200 µg/mL
- solubility (physchem; pH 7.65, aqueous buffer, In Solution (solubility in mixture)): 200 µg/mL
SMILES: COc1ccc(Cc2nccc3cc(OC)c(OC)cc23)cc1OC [Papaverine, papaverine hydrochloride]
